Source: patent US5254577A, “Aminomethyloxooxazolidinyl arylbenzene derivatives useful as antibacterial agents” (The Du Pont Merck Pharmaceutical Company, priority 1992, dated 1993)
≈ marks a conversion by molar mass, not a printed value. Where a name gives a salt, the structure may show the parent alone. Read-outs that look alike come from different tables or passages of the source.

Key:
Staphylococcus aureus [1] = experiment: In vitro broth microdilution, 24-hour minimal inhibitory concentration (MIC); assay type: cell-based; settings: Mueller-Hinton broth; for MIC: read-out: Minimum Inhibitory Concentration
Source text: (§1) A standard microdilution method (National Committee for Clinical Standards. Tentative standard M7-T. Standard methods for dilution antimicrobial susceptibility tests for bacteria that grow aerobically. National Committee for Clinical Laboratory Standards, Villanova, Pa. 1982) with Mueller-Hinton broth is used to determine the 24-hour minimal inhibitory concentrations (MIC's) for test strains of Staphylococcus aureus and Escherichia coli.

Escherichia coli = experiment: as above; assay type: cell-based; settings: Mueller-Hinton broth, read-out: Minimum Inhibitory Concentration
Source text: as §1

Staphylococcus aureus [2] = experiment: In vivo activity against Staphylococcus aureus in an acute lethal mouse model; settings: mice infected intraperitoneally, dosed 1 h and 4 h post-infection, survivors on seventh day
Experimental: The in vivo potency of these compounds is exemplified by the data summarized in Table X. Determinations of in vivo efficacy are performed by inoculating mice intraperitoneally with cultures of the infecting organism diluted to produce 100% mortality in control animals within twenty-four hours. The culture of S. aureus used to infect the animals was diluted to the required bacterial density using 5% aqueous hog gastric mucin. The compounds are dissolved or suspended in 0.25% aqueous Methocel® (Methocel®: Hydroxypropyl Methylcullulose, E15 Premium, Dow Chemical Company) for oral administration or sterile distilled water containing 5% dimethylsulfoxide (Fisher Scientific Company, Fairlawn, N.J.) for subcutaneous administration. The mice are dosed at one hour and at four hours post-infection. Mortality is recorded daily until test determination seven days post infection. The number of survivors in each treatment group on the seventh day after infection is used in the calculation of the ED50, the dose of compound that protects 50% of the mice (Litchfield,J. T. and Wildoxon. A simulated method for evaluating dose-effect experiments. J. Pharmacol Exp. Ther., 98:99-113, 1949).

[3] = Staphylococcus aureus, 168 h, Oral Administration, read-out: ED50
[4] = Staphylococcus aureus, sc, 168 h, Subcutaneous Administration, read-out: ED50

SMILES	MIC (Staphylococcus aureus [1])	MIC (Escherichia coli)	ED50 (Staphylococcus aureus [2]; [3])	ED50 (Staphylococcus aureus [2]; [4])	Minimum Inhibitory Concentration (Staphylococcus aureus [1])	ED50 (Staphylococcus aureus [2]; Subcutaneous Administration, 10080 min)
CC(=O)NC[C@H]1CN(c2ccc(-c3ccc(C(C)NN4CCN(C)CC4)cc3)cc2)C(=O)O1 (single isomer, unassigned) [Example 26, (l)-N-[3-(4-(4'-(1-(4-Methylpiperazinylamino)ethyl))phenyl)phenyl-2-oxooxazolidin-5-ylmethyl]acetamide]	1 µg/mL (≈ 2.21 µM)	> 128 µg/mL	–	–	–	–
CC(=O)NC[C@H]1CN(c2ccc(-c3ccc(C(C)O)cc3)cc2)C(=O)O1 (single isomer, unassigned) [Example 27, (l)-N-[3-(4-(4'-(1-Hydroxyethyl)phenyl)phenyl)-2-oxooxazolidin-5-ylmethyl]acetamide]	0.5 µg/mL (≈ 1.41 µM)	> 128 µg/mL	6.6 mg/kg	7.6 mg/kg	–	–
CC(=O)NC[C@H]1CN(c2ccc(-c3ccc(C(O)CCN(C)C)cc3)cc2)C(=O)O1 (single isomer, unassigned) [Example 58, (l)-N-[3-(4-(4'-(3-N,N-Dimethylamino-1-hydroxypropyl)phenyl)phenyl)-2-oxooxazolidin-5-ylmethyl]acetamide]	1 µg/mL (≈ 2.43 µM)	> 128 µg/mL	13.8 mg/kg	2 mg/kg	–	–
CC(=O)NC[C@H]1CN(c2ccc(-c3ccc(C(O)CCN4CCOCC4)cc3)cc2)C(=O)O1 (single isomer, unassigned) [Example 59, (l)-N-[3-(4-(4'-(1-hydroxy-3-(4-morpholinyl)propyl)phenyl)phenyl)-2-oxooxazolidin-5-ylmethyl]acetamide]	2 µg/mL (≈ 4.41 µM)	> 128 µg/mL	7 mg/kg	2.7 mg/kg	–	–
CC(=O)NC[C@H]1CN(c2ccc(-c3cccc([S+](C)[O-])c3)cc2)C(=O)O1 (single isomer, unassigned) [Example 65]	2 µg/mL (≈ 5.37 µM)	> 128 µg/mL	–	4.3 mg/kg	–	–
CC(=O)NC[C@H]1CN(c2ccc(-c3ccc([S+](C)[O-])cc3)cc2)C(=O)O1 (single isomer, unassigned) [Example 68, (l)-N-[3-(4-(4'-methylsulfinylphenyl)phenyl)-2-oxooxazolidin-5-ylmethyl]acetamide]	0.25 µg/mL (≈ 0.671 µM)	> 128 µg/mL	2.2 mg/kg	0.7 mg/kg	–	–
CC(=O)NC[C@H]1CN(c2ccc(-c3ccccc3)cc2)C(=O)O1 [Example 3, (l)-N-[3-(4-Phenylphenyl)-2-oxooxazolidin-5-ylmethyl]acetamide]	0.5 µg/mL (≈ 1.61 µM)	> 128 µg/mL	2.9 mg/kg	2 mg/kg	–	–
CC(=O)NC[C@H]1CN(c2ccc(-c3ccc(C(C)=O)cc3)cc2)C(=O)O1 [Example 4, (l)-N-[3-(4-(4'-Acetylphenyl)phenyl)-2-oxooxazolidin-5-ylmethyl]acetamide]	0.5 µg/mL (≈ 1.42 µM)	> 128 µg/mL	22 mg/kg	39.7 mg/kg	–	–
CCC(=O)c1ccc(-c2ccc(N3C[C@H](CNC(C)=O)OC3=O)cc2)cc1 [Example 7]	2 µg/mL (≈ 5.46 µM)	> 128 µg/mL	–	90 mg/kg	–	–
CC(=O)NC[C@H]1CN(c2ccc(-c3ccc(C(=O)CCl)cc3)cc2)C(=O)O1 [Example 8]	< 0.13 µg/mL	> 128 µg/mL	> 90 mg/kg	> 90 mg/kg	–	–
CC(=O)NC[C@H]1CN(c2ccc(-c3ccc(C(=O)CCC(=O)O)cc3)cc2)C(=O)O1 [Example 9]	< 0.13 µg/mL	> 128 µg/mL	> 90 mg/kg	16.8 mg/kg	–	–
CC(=O)NC[C@H]1CN(c2ccc(-c3ccc(C(=O)CC(C)(C)C(=O)O)cc3)cc2)C(=O)O1 [Example 10]	0.5 µg/mL (≈ 1.14 µM)	> 128 µg/mL	–	–	–	–
CC(=O)NC[C@H]1CN(c2ccc(-c3ccc(I)cc3)cc2)C(=O)O1 [Example 20, (l)-N-[3-(4-(4'-Iodophenyl)phenyl)-2-oxooxazolidin-5-ylmethyl]acetamide]	8 µg/mL (≈ 18.3 µM)	> 128 µg/mL	> 90 mg/kg	> 90 mg/kg	–	–
CC(=O)NC[C@H]1CN(c2ccc(-c3ccc(C=O)cc3)cc2)C(=O)O1 [Example 21, (l)-N-[3-(4-(4'-Formylphenyl)phenyl)-2-oxooxazolidin-5-ylmethyl]acetamide]	< 0.13 µg/mL	> 128 µg/mL	44.7 mg/kg	> 90 mg/kg	–	–
CC(=O)NC[C@H]1CN(c2ccc(-c3ccc(C(C)=NO)cc3)cc2)C(=O)O1 [Example 22, (l)-N-[3-(4-(4'-(1-Hydroxyiminoethyl)phenyl)phenyl)-2-oxooxazolidin-5-ylmethyl]acetamide]	0.25 µg/mL (≈ 0.68 µM)	> 128 µg/mL	> 90 mg/kg	> 90 mg/kg	–	–
CC(=O)NC[C@H]1CN(c2ccc(-c3ccc(C(C)=NOC(=O)CCC(=O)O)cc3)cc2)C(=O)O1 [Example 23, Sodium Salt of Succinate Hemiester of (l)-N-[3-(4-(4'-(1-Hydroxyiminoethyl)phenyl)phenyl)-2-oxooxazolidin-5-ylmethyl]acetamide]	1 µg/mL	> 128 µg/mL	17.3 mg/kg	24.3 mg/kg	–	–
CC(=O)NC[C@H]1CN(c2ccc(-c3ccc(C(C)=NOCC(=O)O)cc3)cc2)C(=O)O1 [Example 24, (l)-N-[3-(4-(4'-(1-Carboxymethoxyliminoethyl)phenyl)phenyl)-2-oxooxazolidin-5-ylmethyl]acetamide]	8 µg/mL (≈ 18.8 µM)	> 128 µg/mL	> 90 mg/kg	> 90 mg/kg	–	–

SMILES	MIC (Staphylococcus aureus [1])	MIC (Escherichia coli)	ED50 (Staphylococcus aureus [2]; [3])	ED50 (Staphylococcus aureus [2]; [4])	Minimum Inhibitory Concentration (Staphylococcus aureus [1])	ED50 (Staphylococcus aureus [2]; Subcutaneous Administration, 10080 min)
CC(=O)NC[C@H]1CN(c2ccc(-c3ccc(C(C)=NN4CCN(C)CC4)cc3)cc2)C(=O)O1 [Example 25, (l)-N-[3-(4-(4'-Acetylphenyl)phenyl)-2-oxooxazolidin-5-ylmethyl]acetamide 4-Methylpiperazinylhydrazone]	2 µg/mL (≈ 4.45 µM)	> 128 µg/mL	13.9 mg/kg	5.8 mg/kg	–	–
CC(=O)NC[C@H]1CN(c2ccc(-c3ccc(CO)cc3)cc2)C(=O)O1 [Example 28]	< 0.13 µg/mL	> 128 µg/mL	52.6 mg/kg	30 mg/kg	–	–
CC(=O)NC[C@H]1CN(c2ccc(-c3ccc(C(C)OC(=O)CCC(=O)O)cc3)cc2)C(=O)O1 (some centres unmarked) [Example 29]	4 µg/mL (≈ 8.8 µM)	> 128 µg/mL	16.1 mg/kg	9.8 mg/kg	–	–
CC(=O)NC[C@H]1CN(c2ccc(-c3ccc(C(C)OC(=O)CCC(=O)O)cc3)cc2)C(=O)O1 (some centres unmarked) [Example 30]	–	–	–	–	4 µg/mL	9.8 mg/kg
CC(=O)NC[C@H]1CN(c2ccc(-c3ccc(C#N)cc3)cc2)C(=O)O1 [Example 37, (l)-N-[3-(4-(4'-Cyanophenyl)phenyl)-2-oxooxazolidin-5-ylmethyl]acetamide]	0.25 µg/mL (≈ 0.745 µM)	> 128 µg/mL	< 1.2 mg/kg	0.6 mg/kg	–	–
CC(=O)NC[C@H]1CN(c2ccc(-c3ccc(-c4nn[nH]n4)cc3)cc2)C(=O)O1 [Example 38, (l)-N-[3-(4-(4'-(5-Tetrazolyl)phenyl)phenyl)-2-oxooxazolidin-5-ylmethyl]acetamide]	64 µg/mL (≈ 169 µM)	> 128 µg/mL	–	> 90 mg/kg	–	–
CCN(CC)Cc1ccc(-c2ccc(N3C[C@H](CNC(C)=O)OC3=O)cc2)cc1 [Example 43, (l)-N-[3-(4-(4'-diethylaminomethylphenyl)phenyl)-2-oxooxazolidin-5-ylmethyl]acetamide]	4 µg/mL (≈ 10.1 µM)	> 128 µg/mL	6.4 mg/kg	3.7 mg/kg	–	–
CCCN(CCC)Cc1ccc(-c2ccc(N3C[C@H](CNC(C)=O)OC3=O)cc2)cc1 [Example 44, (l)-N-[3-(4-(4'-di-n-propylaminomethylphenyl)phenyl)-2-oxooxazolidin-5-ylmethyl]acetamide]	4 µg/mL (≈ 9.44 µM)	> 128 µg/mL	8.6 mg/kg	3.7 mg/kg	–	–
CCCCNCc1ccc(-c2ccc(N3C[C@H](CNC(C)=O)OC3=O)cc2)cc1 [Example 45]	0.5 µg/mL (≈ 1.26 µM)	> 128 µg/mL	–	13.9 mg/kg	–	–
CCCCN(CCCC)Cc1ccc(-c2ccc(N3C[C@H](CNC(C)=O)OC3=O)cc2)cc1 [Example 46]	4 µg/mL (≈ 8.86 µM)	> 128 µg/mL	–	30 mg/kg	–	–
CCCCCN(CCCCC)Cc1ccc(-c2ccc(N3C[C@H](CNC(C)=O)OC3=O)cc2)cc1 [Example 47]	0.5 µg/mL (≈ 1.04 µM)	> 128 µg/mL	–	–	–	–
CCCCCCCCN=Cc1ccc(-c2ccc(N3C[C@H](CNC(C)=O)OC3=O)cc2)cc1 [Example 48]	< 0.13 µg/mL	> 128 µg/mL	–	–	–	–
CCCCCCCCNCc1ccc(-c2ccc(N3C[C@H](CNC(C)=O)OC3=O)cc2)cc1 [Example 49]	1 µg/mL (≈ 2.21 µM)	> 128 µg/mL	65.2 mg/kg	> 90 mg/kg	–	–
CC(=O)NC[C@H]1CN(c2ccc(-c3ccc(OCCN(C)C)cc3)cc2)C(=O)O1 [Example 66, (l)-N-[3-(4-(4'-N,N-Dimethylaminoethyloxyphenyl)phenyl)-2-oxooxazolidin-5-ylmethyl]acetamide]	0.5 µg/mL (≈ 1.26 µM)	> 128 µg/mL	–	–	–	–
COc1ccc(-c2ccc(N3C[C@H](CNC(C)=O)OC3=O)cc2)cc1 [Example 75]	< 0.13 µg/mL	> 128 µg/mL	–	–	–	–
CC(=O)NC[C@H]1CN(c2ccc(-c3cncc4ccccc34)cc2)C(=O)O1 [Example 92]	2 µg/mL (≈ 5.53 µM)	> 128 µg/mL	–	–	–	–
CC(=O)NCC1CN(c2ccc(-c3ccc(N(C)C)cc3)cc2)C(=O)O1 (centres unmarked) [Example 115]	16 µg/mL (≈ 45.3 µM)	> 128 µg/mL	–	–	–	–
